Data: ChEMBL document CHEMBL3885881, “DrugMatrix”
“And” between values parts separate entries of the source, which are not always exact repeats. Equal values may be shown once.

Species: Rattus norvegicus
Assay: DrugMatrix - Regimen: Daily Repeat
Type: toxicity, organism-based, Sprague-Dawley
Parameters: regimen Daily Repeat, gender Male, age 6-8 weeks
Details: in vivo, ip, route intraperitoneal, vehicle 100 % SALINE; for ABSOLUTE BASOPHIL / ABSOLUTE EOSINOPHIL / ABSOLUTE LYMPHOCYTE / ABSOLUTE MONOCYTE / ABSOLUTE SEGMENTED NEUTROPHIL / BASOPHIL / EOSINOPHIL / ERYTHROCYTE COUNT / HEMATOCRIT / HEMOGLOBIN / LEUKOCYTE COUNT / LYMPHOCYTE / MEAN CORPUSCULAR HEMOGLOBIN / MEAN CORPUSCULAR HEMOGLOBIN CONCENTRATION / MEAN CORPUSCULAR VOLUME / MONOCYTE / NEUTROPHIL / PLATELET COUNT: tissue Blood; for ALANINE AMINOTRANSFERASE / ALBUMIN / ALKALINE PHOSPHATASE / ASPARTATE AMINOTRANSFERASE / BLOOD UREA NITROGEN / CARBON DIOXIDE / CHOLESTEROL / CREATINE PHOSPHOKINASE / CREATININE / GLUCOSE / LACTATE DEHYDROGENASE / LIPASE / PHOSPHORUS / POTASSIUM / SODIUM / TOTAL BILIRUBIN / TOTAL PROTEIN / URIC ACID / CHLORIDE: tissue Plasma
[1] = 0 mg/kg, 120 h, dose level Control, time 5 day
[2] = 0 mg/kg, […], dose level Control, time 14 day
[3] = 0 mg/kg, […], dose level Control, time 28 day
[4] = 40 mg/kg, 120 h, dose level High, time 5 day

GENTAMICIN
ABSOLUTE BASOPHIL [1]: 32 cells/µL
ABSOLUTE EOSINOPHIL [1]: 110 cells/µL
ABSOLUTE LYMPHOCYTE [1]: 6630 cells/µL
ABSOLUTE MONOCYTE [1]: 140 cells/µL
ABSOLUTE SEGMENTED NEUTROPHIL [1]: 1170 cells/µL
BASOPHIL [1]: 0.38% and 0.35%
EOSINOPHIL [1]: 1.28% and 0.62%
ERYTHROCYTE COUNT [1]: 7.45 x10E6/uL and 7.26 x10E6/uL
HEMATOCRIT [1]: 45.74% and 47.97%
HEMOGLOBIN [1]: 14.72 G/DL and 15.38 G/DL
LEUKOCYTE COUNT [1]: 8.11 x10E3/uL and 8.68 x10E3/uL
LYMPHOCYTE [1]: 81.3% and 86.77%
MEAN CORPUSCULAR HEMOGLOBIN [1]: 19.76 pg and 21.18 pg
MEAN CORPUSCULAR HEMOGLOBIN CONCENTRATION [1]: 32.16 G/DL and 32.05 G/DL
MEAN CORPUSCULAR VOLUME [1]: 61.38 fL and 66.15 fL
MONOCYTE [1]: 1.76% and 1.57%
NEUTROPHIL [1]: 14.9% and 9.53%
PLATELET COUNT [1]: 1322.4 x10E3/uL and 1786 x10E3/uL
ALANINE AMINOTRANSFERASE [1]: 25.8 u/L and 20.5 u/L
ALBUMIN [1]: 3.64 G/DL and 4.35 G/DL
ALKALINE PHOSPHATASE [1]: 300 u/L
ASPARTATE AMINOTRANSFERASE [1]: 81.4 u/L and 86.75 u/L
BLOOD UREA NITROGEN [1]: 14.4 mg/dL and 17 mg/dL
CARBON DIOXIDE [1]: 29 mmol/L
CHOLESTEROL [1]: 69.2 mg/dL and 51.25 mg/dL
CREATINE PHOSPHOKINASE [1]: 303.2 u/L and 384.75 u/L
CREATININE [1]: 0.56 mg/dL and 0.47 mg/dL
GLUCOSE [1]: 125.4 mg/dL and 128.75 mg/dL
LACTATE DEHYDROGENASE [1]: 105.4 u/L and 145 u/L
LIPASE [1]: 22.4 u/L and 13.25 u/L
PHOSPHORUS [1]: 11.8 mg/dL
POTASSIUM [1]: 5.52 MEQ/L and 6.58 MEQ/L
SODIUM [1]: 147 MEQ/L and 151 MEQ/L
TOTAL BILIRUBIN [1]: 0.2 mg/dL and 0.33 mg/dL
TOTAL PROTEIN [1]: 6.1 G/DL and 6.53 G/DL
URIC ACID [1]: 1.06 mg/dL and 1.95 mg/dL
ABSOLUTE BASOPHIL [2]: 130 cells/µL
ABSOLUTE EOSINOPHIL [2]: 140 cells/µL
ABSOLUTE LYMPHOCYTE [2]: 13500 cells/µL
ABSOLUTE MONOCYTE [2]: 400 cells/µL
ABSOLUTE SEGMENTED NEUTROPHIL [2]: 2330 cells/µL
HEMATOCRIT [2]: 45.98%
HEMOGLOBIN [2]: 15.17 G/DL
MEAN CORPUSCULAR VOLUME [2]: 59.4 fL
NEUTROPHIL [2]: 14.14%
ABSOLUTE BASOPHIL [3]: 91 cells/µL
ABSOLUTE EOSINOPHIL [3]: 110 cells/µL
ABSOLUTE LYMPHOCYTE [3]: 9910 cells/µL
ABSOLUTE MONOCYTE [3]: 210 cells/µL
ABSOLUTE SEGMENTED NEUTROPHIL [3]: 1560 cells/µL
BASOPHIL [3]: 0.77%
EOSINOPHIL [3]: 0.92%
ERYTHROCYTE COUNT [3]: 8.21 x10E6/uL
HEMATOCRIT [3]: 47.53%
HEMOGLOBIN [3]: 15.65 G/DL
LEUKOCYTE COUNT [3]: 11.91 x10E3/uL
LYMPHOCYTE [3]: 83.34%
MEAN CORPUSCULAR HEMOGLOBIN [3]: 19.07 pg
MEAN CORPUSCULAR HEMOGLOBIN CONCENTRATION [3]: 32.93 G/DL
MEAN CORPUSCULAR VOLUME [3]: 57.9 fL
MONOCYTE [3]: 1.68%
NEUTROPHIL [3]: 12.97%
PLATELET COUNT [3]: 1323.8 x10E3/uL
ALBUMIN [2]: 3.66 G/DL
CARBON DIOXIDE [2]: 25 mmol/L
CHLORIDE [2]: 107 MEQ/L
CREATINE PHOSPHOKINASE [2]: 410.25 u/L
SODIUM [2]: 149.2 MEQ/L
URIC ACID [2]: 0.94 mg/dL
ALANINE AMINOTRANSFERASE [3]: 30 u/L
ALBUMIN [3]: 3.71 G/DL
ALKALINE PHOSPHATASE [3]: 186.8 u/L
ASPARTATE AMINOTRANSFERASE [3]: 78.2 u/L
BLOOD UREA NITROGEN [3]: 14.2 mg/dL
CHOLESTEROL [3]: 44.9 mg/dL
CREATINE PHOSPHOKINASE [3]: 334.3 u/L
CREATININE [3]: 0.6 mg/dL
GLUCOSE [3]: 147.2 mg/dL
LACTATE DEHYDROGENASE [3]: 123.1 u/L
LIPASE [3]: 9.6 u/L
PHOSPHORUS [3]: 10.01 mg/dL
POTASSIUM [3]: 6.57 MEQ/L
SODIUM [3]: 149.5 MEQ/L
TOTAL BILIRUBIN [3]: 0.21 mg/dL
TOTAL PROTEIN [3]: 6.66 G/DL
URIC ACID [3]: 1.26 mg/dL
ABSOLUTE BASOPHIL [4]: 80 cells/µL
ABSOLUTE EOSINOPHIL [4]: 74 cells/µL
ABSOLUTE LYMPHOCYTE [4]: 8100 cells/µL
ABSOLUTE MONOCYTE [4]: 240 cells/µL
ABSOLUTE SEGMENTED NEUTROPHIL [4]: 1450 cells/µL
BASOPHIL [4]: 0.76% and 0.38%
EOSINOPHIL [4]: 0.78% and 0.9%
ERYTHROCYTE COUNT [4]: 6.83 x10E6/uL and 7.91 x10E6/uL
HEMATOCRIT [4]: 41.68% and 49.95%
HEMOGLOBIN [4]: 15.98 G/DL
LEUKOCYTE COUNT [4]: 10.02 x10E3/uL and 8.78 x10E3/uL
LYMPHOCYTE [4]: 80.04% and 84.55%
MEAN CORPUSCULAR HEMOGLOBIN [4]: 20.3 pg and 20.2 pg
MEAN CORPUSCULAR HEMOGLOBIN CONCENTRATION [4]: 33.3 G/DL and 31.98 G/DL
MEAN CORPUSCULAR VOLUME [4]: 61 fL
MONOCYTE [4]: 2.58% and 2.52%
NEUTROPHIL [4]: 15.12% and 10.23%
PLATELET COUNT [4]: 1275.4 x10E3/uL and 1549.75 x10E3/uL
ALANINE AMINOTRANSFERASE [4]: 28.6 u/L and 25 u/L
ALBUMIN [4]: 3.36 G/DL and 4.35 G/DL
ALKALINE PHOSPHATASE [4]: 214.2 u/L and 307.5 u/L
ASPARTATE AMINOTRANSFERASE [4]: 87.2 u/L and 90.25 u/L
BLOOD UREA NITROGEN [4]: 15 mg/dL and 15.25 mg/dL
CARBON DIOXIDE [4]: 25.75 mmol/L
CHLORIDE [4]: 107.4 MEQ/L
CHOLESTEROL [4]: 60.8 mg/dL and 65.25 mg/dL
CREATINE PHOSPHOKINASE [4]: 313.5 u/L and 416.75 u/L
CREATININE [4]: 0.44 mg/dL and 0.45 mg/dL
GLUCOSE [4]: 128 mg/dL and 118.5 mg/dL
LACTATE DEHYDROGENASE [4]: 133.8 u/L and 153 u/L
